Measured values: patent US4022787A (priority 1975, dated 1977)
Where a name gives a salt, the structure may show the parent alone.

Tests used:
rabbit eye pupil = details: in vivo
sweat glands = details: cited from earlier work

| SMILES | rabbit eye pupil result compared with test compound (rabbit eye pupil) | sweat inhibition (sweat glands) |
| --- | --- | --- |
| CN1[C@@H]2CC[C@H]1C[C@@H](OC(=O)C(CO)c1ccccc1)C2 (some centres unmarked) [Atropine sulfate] | gave similar results | – |
| CN1C2CC(OC(=O)C(COC(=O)c3ccccc3)c3ccccc3)CC1C1OC12 (centres unmarked) [benzoyl ester of scopolamine] | – | valuable for sweat inhibition |
